According to US20160279204A1, “PEPTIDES AND PHARMACEUTICAL COMPOSITIONS FOR USE IN THE TREATMENT BY NASAL ADMINISTRATION OF PATIENTS SUFFERING FROM ANXIETY AND SLEEP DISORDERS” (MAX-PLANCK-GESELLSCHAFT ZUR FÖRDERUNG DER WISSENSCHAFT E.V., priority 2011, published 2016):
Entries after “also recorded” stand apart in the source; their conditions may differ.

What was measured:
Bl6 and HAB mice = test: Elevated plus maze (EPM) after intranasal NPS; assay type: in vivo, mouse
Procedure: Behavioural tests (open field, dark-light test and elevated plus maze (EPM)) following intranasal NPS application were performed sequentially. Each test lasted for 5 min with an inter-test interval of 5 min, as described previously (Bunck et al., 2009; Krömer et al., 2005). The animals' behaviour during testing was videotaped and relevant parameters were analysed with the tracking software ANY-maze version 4.30 (Stoelting, Wood Dale, Ill., USA). Native NPS (1 μg/μL) or vehicle (Ringer solution) were administered intranasally to the alert mouse as described above (total volume: 14 μL). Mice were tested 30 min and 4 hrs after intranasal administration of first drop. Animals were sacrificed 24 hrs after treatment and prefrontal cortex and bilateral hippocampi were prepared immediately and shock-frozen in methylbutane.
After having ascertained that nasally administered NPS reaches its target cells, anxiolytic effects of NPS were established for this transnasal delivery method. For this purpose, nasally 6.36 nmol NPS per mouse was administered to two mouse strains, Bl6 and HAB (high anxiety behaviour) mice. HAB animals, a mouse strain inbred for pathologically high anxiety, were chosen together with Bl6 mice to allow differentiation between the temporary condition of state anxiety and the general condition of trait anxiety (Bunck et al., 2009; Kromer et al., 2005). To accurately characterise the anxiety-relieving properties of NPS in these two mouse strains, three standardised behavioural assays measuring anxiolytic effects at two different time points after intranasal NPS administration were performed. In each test, the effects of intranasal NPS versus vehicle treatment on both anxiety- and locomotion-related indices were examined.

C57BL/6N mice = test: Elevated plus maze after bilateral NPS injection into CA1 of the VH; assay type: in vivo, mouse; conditions: 0.1 nmol NPS each side into CA1 of VH, 30 min
Procedure: Animals were fixed in a stereotactic frame and maintained under isoflurane anesthesia (Forene® 100%, V/V; induction: 2.5%; maintenance: 1.5%; in O2; flow rate: 1 L/min). The mice received acute analgesic treatment with Metacam s.c. during surgery (0.5 mg/kg; in NaCl). 23 gauge stainless-steel guide cannulas were implanted in the CA1 region of the VH at the following coordinates: 3.1 mm posterior, ±3 mm lateral from bregma, and 2 mm ventral from the skull surface (Franklin and Paxinos, 2007). The guide cannulas were fixed with two screws and a two-component adhesive. For behavioural experiments, animals were implanted bilaterally for later bilateral injection, whereas for Cy3-NPS injections, implantation was performed unilaterally. The animals were allowed to recover for at least 6 days before starting the behavioural experiments. Substance infusions were carried out manually, on mice anesthetised by brief inhalation of isoflurane, using a 30 gauge injection cannula connected to a Tygon tube and a 10 μL Hamilton syringe. After infusion, the injection cannula was kept in place for additional 30 s to prevent substance outflow.
Mice were injected bilaterally either with 0.1 nmol NPS in 0.5 μL ACSF for each side or with 0.5 μL of ACSF for each side. 30 min after injection, three behavioural assays [open field, dark-light test, and elevated plus maze (EPM)] were performed sequentially in the order mentioned. Each test lasted 5 min, with a 5 min break in between, as described in Kromer et al., 2005 and Bunck et al., 2009. Animal behaviour was videotaped and relevant parameters were analysed using the tracking software ANY-maze version 4.30 (Stoelting, Wood Dale, Ill., USA). Mice were sacrificed 24 h after completion of behavioural assays and the locations of the guide cannulas were checked in histological cryosections of 40 μm counterstained with DAPI. Mice with deviating injection sites were excluded from further analysis.

NPSR [1] = conditions: cited from earlier work
NPSR [2] = biological target: T1, NPSR (Mus musculus, UniProt Q8BZP8); conditions: rodents, ICV injection, US 2010/0056455; cited from earlier work
T1 construct: host or cells: rodent brain in vivo
T1 sequence (Q8BZP8 1-371): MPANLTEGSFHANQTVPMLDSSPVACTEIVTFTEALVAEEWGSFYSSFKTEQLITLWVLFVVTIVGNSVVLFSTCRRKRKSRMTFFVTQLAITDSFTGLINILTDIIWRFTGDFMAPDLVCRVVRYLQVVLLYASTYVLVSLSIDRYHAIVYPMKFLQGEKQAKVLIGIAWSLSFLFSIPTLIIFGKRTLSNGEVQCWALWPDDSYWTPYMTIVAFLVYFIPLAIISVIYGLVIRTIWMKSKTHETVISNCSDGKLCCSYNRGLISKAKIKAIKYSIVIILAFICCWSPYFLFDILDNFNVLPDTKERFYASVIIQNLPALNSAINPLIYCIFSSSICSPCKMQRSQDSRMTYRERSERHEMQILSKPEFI

[3] = test system: Cy3-NPS uptake in mouse brain; test: Cy3-NPS uptake after ICV pre-injection of native NPS; assay type: in vivo; conditions: native NPS at 5 fold concentration, 10 min prior to ICV Cy3-NPS (0.2 nmol per mouse)
Procedure: The mice were sacrificed 30 min post-injection.
To clarify the mechanism of intracellular Cy3-NPS uptake, native, i.e. unlabeled, NPS at 5 fold concentration was injected unilaterally 10 min prior to ICV injection of Cy3-NPS (0.2 nmol per mouse). […] This points towards a receptor-mediated uptake mechanism, since, as shown for other neuropeptides (cf. Grady et al., 1996; Hubbard et al., 2009) pre-treatment with unlabeled agonists leads to receptor saturation, thereby antagonising the uptake of labelled agonist (here Cy3-NPS).

[4] = test system: CA3-CA1 synapses of the VH; test: Field potential recordings, bath application of NPS to VH slices; parameters: species or system mouse; conditions: bath application of NPS 1 μM, VH slices from C57BL/6N mice
Procedure: Brains were dissected and placed in ice-cold carbogenated ACSF. 350 μm horizontal slices containing the VH were prepared using a vibroslicer. Afterwards, the slices were incubated for 30 min at 34° C. and subsequently stored at room temperature. For experiments, slices were placed in a submerged recording chamber and continuously superfused with carbogenated ACSF at a flow rate of 3 mL/min. Square pulse electrical stimuli (50 μs pulse width) were delivered via a bipolar tungsten electrode (insulated to the tip, 50 μm pole diameter) that was positioned within the stratum radiatum of the CA1 region. All recordings were performed at room temperature, low-pass filtered at 1 kHz, and digitised at 5 kHz. Evoked field excitatory postsynaptic potentials (fEPSPs) were recorded using glass micro-electrodes (1 MΩ open-tip resistance), filled with ACSF and also positioned within the CA1 stratum radiatum. Stimulus intensities were adjusted in a manner to produce a fEPSP of ˜50% of that amplitude at which a population spike becomes clearly observable. Paired-pulse facilitation was measured at interstimulus intervals of 25, 50, 100, 200, and 400 ms and the paired-pulse ratio was calculated as fEPSP2 amplitude/fEPSP1 amplitude.

Substance: neuropeptide S (SFRNGVGSGVKKTSFRRAKQ; Neuropeptide S; UniProt P0C0P7 70-89, looked up) [NPS, peptide agonist of neuropeptide S receptor (NPSR); native NPS, rat, from Bachem]
- behavioural differences versus vehicle in EPM (Bl6 and HAB mice; Bl6 and HAB mice, intranasal 6.36 nmol per mouse, 30 min): no behavioural differences
- time on the open arms (Bl6 and HAB mice; Bl6 mice, intranasal, 4 hrs): significantly increased
- total number of entries (Bl6 and HAB mice; Bl6 mice, intranasal, 4 hrs): no difference
- any parameter tested in the EPM (Bl6 and HAB mice; HAB mice, intranasal, 4 hrs): no differences
- anxiety-related behaviour on the EPM (C57BL/6N mice): significant anxiolytic effect; also recorded: decreased anxiety-related behaviour
- increase in the percentage of time spent on the open arms compared to vehicle-treated mice (C57BL/6N mice): 28%
- locomotion on the EPM (C57BL/6N mice): did not affect locomotion; also recorded: without affecting locomotion
- response of NPSR-KO mice to NPS treatment (NPSR [1]; NPSR-KO mice, Duangdao et al., 2009): resistant
- anxiolytic effects (NPSR [1]; rodents, intracerebral and ICV injection): strong anxiolytic effects
- locomotor activity and wakefulness (NPSR [2]): increased locomotor activity and wakefulness
- effect of pre-injection on Cy3-NPS uptake [3]: reduced Cy3-NPS uptake throughout the brain
- long-term potentiation (LTP) [4]: decreases
- paired-pulse facilitation [4]: decreases
